In patent publication US20180360972A1, “THERAPEUTIC COMPOUNDS” (REGENTS OF THE UNIVERSITY OF MINNESOTA, priority 2017, published 2018):
Entries after “also recorded” stand apart in the source; their conditions may differ. Read-outs that look alike come from different tables or passages of the source.

Assays:
male MC4RKO mice = assay: ICV administration, conventional cages, male MC4RKO mice; assay type: in vivo
Experimental: (§1) All experiments were performed in accordance with the Institutional Animal Care and Use Committee (IACUC) at the University of Minnesota. Female and male littermates with mixed background from C57BL/6J and 129/Sv inbred strains were 8 weeks old at the time of surgeries. Mice were individually housed after surgeries and for the remainder of the experiment. Mice were maintained on a 12 hr light/dark cycle (Lights off was at 11:59 AM) in a temperature controlled room (23-25° C.). In the nocturnal feeding paradigm, mice had free access to normal chow (Harlan Teklad 2018 Diet: 18.6% crude protein, 6.2% crude fat, 3.5% crude fiber, with energy density of 3.1 kcal/g). […] Mice had free access to tap water throughout all the experiments. The cannula placement validation studies and conventional cage studies were performed in standard mouse polycarbonate conventional cages provided by University of Minnesota's Research Animal Resources (RAR). Weekly cage changes were conducted by lab research staff.
(§2) Mice were anesthetize with a mixture of ketamine (100 mg/kg) and xylazine (5 mg/kg) and were positioned in a stereotaxic apparatus (David Kopf Instruments). A 26-gauge cannula (Cat# 81C315GS4SPC; PlasticsOne, Roanoke, Va.) was inserted in the lateral cerebral ventricle at the coordinates 1.0 mm lateral and 0.46 mm posterior to bregma and 2.3 mm ventral to the skull (Franklin, K. B. J. & Paxinos, G. The Mouse Brain in Stereotaxic Coordinates. (Academic Press, 1997)).
(§3) As stated above, conventional cage experiments were performed in standard mouse polycarbonate conventional cages. […] All experiments followed a cross-over paradigm in which the mouse received saline and compound on different days with a washout period in between each treatment. Statistical analysis was performed using SPSS V23 software (IBM) using a multivariate general linear model followed by a Bonferroni's post hoc test. Results are presented as Mean±SEM. Statistically significant was considered p<0.05.
In male MC4RKO mice, CJL-5-58 was administered at 5 nmols in both a nocturnal paradigm and a fasting-refeeding paradigm in standard conventional cages (FIG. 15). The dose was well handled in the nocturnal paradigm, but minimal effect was observed.

mMC4R = target: T1, mMC4R (Mus musculus, UniProt P56450); assay: 125I-NDP-MSH competitive binding; details: displacement of 125I-NDP-MSH; receptor subtype not printed at b283; read-out: binding affinity IC50
T1 construct: expressed in transfected cells
Experimental: NDP-MSH was radioiodinated with Na^125I utilizing the chloramine T procedure (26). […] HEK293 cells stably expressing wildtype mMC1R or mMC4R were maintained as described above. Transiently transfected HEK293 cells were used for binding experiments on the mMC3R. Transfection was performed in 10 cm plates using FuGene6 transfection reagent (15 μL/plate; Promega), Opti-Mem medium (1.7 mL/plate; Invitrogen), and mMC3R-Flag DNA (3.33 μg/plate) two days prior to binding experiment. One or two days preceding the competition experiments, cell were plated into 12-well tissue culture plates (Corning Life Sciences, Cat. # 353043) and grown to 90-100% confluency. On the day of the assay, media was removed gently. The cells were treated with a freshly diluted aliquot of non-labeled compound at the in well concentration being tested (ranging from 10^−12 to 10^−4 M as appropriate) in assay buffer (DMEM and 0.1% BSA) and a constant amount of ^1251-NDP-MSH (100,000 cpm/well) and were incubated at 37° C. for one hour. […] The radioactivity was quantified on WIZARD^2 Automatic Gamma Counter (PerkinElmer). […] The non-specific values used for calculations was radioactivity of the 10^−6 M unlabeled NDP-MSH. Data was analyzed by a nonlinear regression method using the PRISM program (v4.0; GraphPad Inc.) to generate and calculate dose-response curves and IC50 values.

male wild type mice = assay type: in vivo; details: for energy expenditure vs saline / food intake vs saline / respiratory exchange ratio (RER) vs saline / water intake vs saline: 5 nmols CJL-5-58 or 5 nmols each CJL-1-14 and CJL-1-80
Experimental: as §1, §2
(§4) Each mouse was administered hPYY and saline on different days following a crossover design in the nocturnal feeding paradigm. In the nocturnal paradigm, compound is administered 2 hours prior to lights out with free access to food and water throughout the entire experiment. There was at least a 4 day washout period between administration to ensure that normal feeding patterns and body weight returned. Food intake and body weight were manually measured 2, 4, and 6 hours after hPYY or saline administration. A mouse with a validated cannula placement for the TSE cage experiments consumed at least 1.0 g more after hPYY administration compared to saline administration 4 hours post-administration.
as §3

[1] = target: mMC4R-NanoLuc and mMC4R-HaloTag homodimer (Mus musculus, UniProt P56450); assay: NanoBRET ligand-dependent modulation of BRET signal; details: ligand at 10 μM
Experimental: On the first day, cells were plated into 6 well plates in the morning. In the afternoon of the same day, cells were transiently transfected with mMC4R-NanoLuc® fusion protein and the MC4R-HaloTag® fusion protein by adding FuGene6 Transfection (8 μL/well, Promega), DNA (2 μg/well) in OptiMem medium (Invitrogen) at a total volume of 100 μL/well. […] Cells were incubated with transfection reagent overnight at 5% CO2 at 37° C.
This provides the background signal and was subtracted from the final experimental signal. Plates were then developed 48 to 60 hours after transfection. Two hours before the plates were developed, 10 μL of a 10× aliquot of the ligand diluted in assay buffer was added to each well to yield the final in well concentration (10^−5, 10^−7, or 10^−9M) of each compound. For the assay buffer control, 10 μL of assay buffer was added instead of compound. […] The standard error of the mean (SEM) was derived from at least three independent experiments.

wild type mice = assay: ICV administration, conventional cages, wild type mice; assay type: in vivo
Experimental: as §1, §2, §4, §3

[2] = fasting-refeeding, time after administration
[3] = nocturnal free-feeding paradigm, 5.0 nmol ICV

mMC4R-NanoLuc and mMC4R-HaloTag homodimer, sequence (P56450 whole entry): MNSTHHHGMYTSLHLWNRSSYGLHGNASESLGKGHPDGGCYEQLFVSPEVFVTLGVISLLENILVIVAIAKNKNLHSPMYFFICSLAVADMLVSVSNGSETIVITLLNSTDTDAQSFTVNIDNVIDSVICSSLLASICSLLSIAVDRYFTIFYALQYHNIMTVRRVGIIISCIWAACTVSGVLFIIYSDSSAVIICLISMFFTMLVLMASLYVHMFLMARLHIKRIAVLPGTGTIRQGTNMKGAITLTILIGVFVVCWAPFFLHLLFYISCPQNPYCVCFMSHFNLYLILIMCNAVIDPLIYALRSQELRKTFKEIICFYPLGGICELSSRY
mMC4R-NanoLuc and mMC4R-HaloTag homodimer, sequence (P56450 whole entry): as above
T1 sequence (P56450 whole entry): as above

Q: For CC(=O)N[C@@H](Cc1cnc[nH]1)C(=O)N[C@H](Cc1ccccc1)C(=O)N[C@@H](CCCNC(=N)N)C(=O)N[C@@H](Cc1c[nH]c2ccccc12)C(=O)NCCCOCCOCCOCCCNC(=O)COCC(=O)N[C@@H](Cc1cnc[nH]1)C(=O)N[C@H](Cc1ccc2ccccc2c1)C(=O)N[C@@H](CCCNC(=N)N)C(=O)N[C@@H](Cc1c[nH]c2ccccc12)C(N)=O [CJL-5-58, Ac-His-DPhe-Arg-Trp-(PEDG20)-His-DNal(2′)-Arg-Trp-NH2], which toxicity (male MC4RKO mice; ICV 2.5 to 5 nmols, conventional cages) is on record?
A: Its toxicity is “Some toxicity was observed”.

Q: And the adverse reactions (male MC4RKO mice; fasting-refeeding, 5 nmols)?
A: The adverse reactions was “some signs of adverse reactions”.

Q: And the “body weight vs saline” value (male MC4RKO mice; fasting-refeeding, 5 nmols)?
A: The value was “no effect on mouse body weight”.

Q: What about the “food intake vs saline” value (male MC4RKO mice; fasting-refeeding, 5 nmols) of the same molecule?
A: Its value is “decreased food intake at 2, 4, 6, 8 and 24 hours after compound administration”.

Q: What about the “body weight vs saline” value (male MC4RKO mice; nocturnal paradigm, 5 nmols) of the same molecule?
A: The value was “significant increase in body weight 6 hours after compound administration”.

Q: What about the “food intake vs saline” value (male MC4RKO mice; nocturnal paradigm, 5 nmols) of the same molecule?
A: The value was “immediate reduction in food intake 2 hours after compound administration”.

Q: What about the tolerability (male MC4RKO mice; nocturnal paradigm, 5 nmols) of the same molecule?
A: The tolerability was “well handled; also recorded: looked healthy”.

Q: And the IC50 (mMC4R)?
A: Its IC50 is 14 nM.

Q: And the “RER, CJL-5-58 vs co-administration of CJL-1-14 and CJL-1-80” value (male wild type mice; fasting paradigm)?
A: Its value is “significant differences in RER at the 2, 3, 6, and 7 hour time points”.

Q: What about the activity vs saline (male wild type mice; fasting paradigm) of the same molecule?
A: The activity vs saline was “no significant differences were observed in activity”.

Q: And the “energy expenditure, CJL-5-58 vs co-administration of CJL-1-14 and CJL-1-80” value (male wild type mice; fasting paradigm)?
A: The value was “significantly higher for CJL-5-58 at the 13 and 17 hour time points”.

Q: And the “food intake, CJL-5-58 vs co-administration of CJL-1-14 and CJL-1-80” value (male wild type mice; fasting paradigm)?
A: The value was “significant differences in the food intake at 2 and 4 hour time point”.

Q: What about the “number of mice that died” value (male wild type mice; fasting paradigm) of the same molecule?
A: The value was “one”.

Q: And the “energy expenditure reached after treatment” value (male wild type mice; fasting paradigm, 5 nmol dose, baseline c.a. 12)?
A: The value was 17 to 19 kcal/h/kg.

Q: What about the “energy expenditure vs saline” value (male wild type mice; fasting paradigm) of the same molecule?
A: Its value is “significantly lower for the first 3 hours post-treatment; also recorded: increased energy expenditure is observed 15, 17, and 21 hours after compound administration”.

Q: And the “food intake vs saline” value (male wild type mice; fasting paradigm)?
A: The value was “decrease in food intake up to 12 hours after administration”.

Q: And the “respiratory exchange ratio (RER) vs saline” value (male wild type mice; fasting paradigm)?
A: Its value is “significantly lower RER was observed for the first 9 hours and at 17 hours”.

Q: And the “water intake vs saline” value (male wild type mice; fasting paradigm)?
A: Its value is “decrease in water intake was observed with 5 nmols of CJL-5-58 at time points 4, 6, 8, 10, and 12 hours”.

Q: What about the “number of adverse reactions” value (male wild type mice; fasting paradigm, within 30 minutes of injection) of the same molecule?
A: Its value is “four”.

Q: And the “time to recovery from adverse reactions” value (male wild type mice; mice experiencing adverse reactions)?
A: The value was less than 1 h.

Q: And the activity vs saline (male wild type mice; nocturnal paradigm)?
A: Its activity vs saline is “increase in activity was observed during the first 5 hours after administration”.

Q: And the “any parameter, CJL-5-58 vs co-administration of CJL-1-14 and CJL-1-80” value (male wild type mice; nocturnal paradigm)?
A: Its value is “no significant differences were observed for any parameter”.

Q: What about the “number of adverse reactions” value (male wild type mice; nocturnal paradigm) of the same molecule?
A: Its value is 2.

Q: What about the “number of mice that died” value (male wild type mice; nocturnal paradigm) of the same molecule?
A: Its value is “one”.

Q: And the “energy expenditure vs saline” value (male wild type mice; nocturnal paradigm)?
A: Its value is “increase in energy expenditure was observed 5, 13, 15, and 16 hours after treatment”.

Q: And the “food intake vs saline” value (male wild type mice; nocturnal paradigm)?
A: Its value is “no significant effect was observed”.

Q: And the “respiratory exchange ratio (RER) vs saline” value (male wild type mice; nocturnal paradigm)?
A: Its value is “significantly lowered RER values only until 2 hours after administration”.

Q: And the “water intake vs saline” value (male wild type mice; nocturnal paradigm)?
A: The value was “no difference in water intake was observed”.

Q: And the “reduction in BRET signal compared to basal signal” value [1]?
A: The value was roughly 8%.

Q: And the adverse effects (wild type mice; ICV 2.5 nmols and 5.0 nmols, conventional cages)?
A: Its adverse effects is “no signs of adverse effects”.

Q: And the “change in body weight vs saline, female mice” value (wild type mice; fasting-refeeding)?
A: The value was “Only the 2 hour time point was significant”.

Q: What about the “change in body weight vs saline, male mice” value (wild type mice; fasting-refeeding) of the same molecule?
A: The value was “significant difference was observed in the change in weight of the male mice after compound administration at time points 2, 4, 6, 8, and 24 hours”.

Q: What about the food intake (wild type mice; fasting-refeeding after 22 hour fast, ICV dose response) of the same molecule?
A: The food intake was “dose dependent decrease in food intake; also recorded: reduce food intake”.

Q: And the “food intake vs saline, female mice (time points of significant decrease)” value (wild type mice; [2])?
A: Its value is 2 and 4 hours.

Q: What about the “food intake vs saline, male mice” value (wild type mice; [2]) of the same molecule?
A: The value was “Significant decreased food intake was observed at 2, 4, 6, and 8 hours; also recorded: Significant decreases in food intake were observed at 2, 4, 6, and 8 hours”.

Q: And the “body weight vs saline” value (wild type mice; [3])?
A: Its value is “no statistically significant effect”.

Q: What about the “food intake vs saline” value (wild type mice; [3]) of the same molecule?
A: The value was “no statistically significant effect”.
